The source of these data is PubChem BioAssay (NCI).

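Grown in 96-well plates, cells were treated for 48 hours with each compound at five concentrations. Insufficient inhibition: endpoint recorded as highest concentration tested. TGI is the concentration that stops growth completely.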 Bounds are passed on as bounds.

Among the test systems are CAKI-1 renal; MOLT-4 leukemia; SF-295 CNS; SR leukemia; NCI-H522 lung; HL-60(TB) leukemia; U251 CNS; IGROV1 ovarian; OVCAR-3 ovarian; 786-0 renal; NCI-H23 lung; OVCAR-8 ovarian; UACC-257 melanoma; SN12C renal; MDA-MB-231 breast; RPMI-8226 leukemia; A549 NSCLC.
Common to all, as to test: NCI anticancer screen, dose series, 48 h

As to `O=[N+]([O-])C(/C(Cl)=C(\Cl)Br)=C(/Cl)SCc1ccccc1`, the TGI was found to be 3.78 µM in the assay with CAKI-1 renal; 3.35 µM with MOLT-4 leukemia; 35.9 µM in the assay on SF-295 CNS; 13.4 µM in the assay on SR leukemia; 4.79 µM in the assay with NCI-H522 lung; 2.18 µM with HL-60(TB) leukemia. Also, the TGI was 18.5 µM with U251 CNS; 13.1 µM in the assay on IGROV1 ovarian; 8.83 µM in the assay on OVCAR-3 ovarian; 4.06 µM with 786-0 renal; 14.9 µM in the assay on NCI-H23 lung; 8.13 µM with OVCAR-8 ovarian. The TGI stood at 22.1 µM with UACC-257 melanoma; 11.3 µM in the assay on SN12C renal; 7.96 µM in the assay with MDA-MB-231 breast; 5.42 µM with RPMI-8226 leukemia; 33.5 µM in the assay with A549 NSCLC.
`Nc1[nH]c(=O)nc2snnc12`: the TGI with CAKI-1 renal is more than 28.8 µM; in the assay on MOLT-4 leukemia it was more than 100 µM; with SF-295 CNS, more than 100 µM; with SR leukemia it was more than 100 µM; in the assay on NCI-H522 lung it was more than 100 µM; in the assay with HL-60(TB) leukemia, more than 100 µM. The TGI with U251 CNS, in the assay with IGROV1 ovarian, in the assay with OVCAR-3 ovarian, in the assay on 786-0 renal, in the assay on NCI-H23 lung and in the assay on OVCAR-8 ovarian was more than 100 µM in each case. Moreover, the TGI with UACC-257 melanoma, with SN12C renal, with MDA-MB-231 breast, in the assay with RPMI-8226 leukemia and in the assay with A549 NSCLC was more than 100 µM in each case.
Consider `N#Cc1c(Cl)c2cccnc2n2c1nc1ccccc12`, for which the TGI worked out at 3.71 µM in the assay on CAKI-1 renal; 6.15 µM in the assay with MOLT-4 leukemia; 35.9 µM in the assay with SF-295 CNS; 5.83 µM with SR leukemia; 2.68 µM in the assay on NCI-H522 lung; 3.78 µM in the assay on HL-60(TB) leukemia. Moreover, the TGI in the assay on U251 CNS worked out at 10.3 µM; in the assay on IGROV1 ovarian it was 4.94 µM; with OVCAR-3 ovarian it was 9.6 µM; in the assay with 786-0 renal, 3.27 µM; with NCI-H23 lung, 4.28 µM; in the assay with OVCAR-8 ovarian it was 3.77 µM. For the same compound, the TGI with UACC-257 melanoma turned out to be 7.5 µM; with SN12C renal, 3.7 µM; in the assay with MDA-MB-231 breast it was 5.38 µM; in the assay with RPMI-8226 leukemia, 5.67 µM; with A549 NSCLC, 18.6 µM.
On to `O=c1[nH]nc(-c2ccccc2)n1/N=C/c1cccc([N+](=O)[O-])c1`, for which the TGI in the assay on CAKI-1 renal, with MOLT-4 leukemia, in the assay on SF-295 CNS, with SR leukemia, in the assay on NCI-H522 lung and in the assay on HL-60(TB) leukemia was more than 100 µM each time. For the same compound, the TGI with U251 CNS, with IGROV1 ovarian, in the assay on OVCAR-3 ovarian, in the assay with 786-0 renal, with NCI-H23 lung and in the assay with OVCAR-8 ovarian was more than 100 µM throughout. Further, the TGI in the assay with UACC-257 melanoma, in the assay with SN12C renal, with MDA-MB-231 breast, in the assay on RPMI-8226 leukemia and in the assay on A549 NSCLC was more than 100 µM in each case.
`O=[N+]([O-])c1ccc(C2ON=C(c3ccccc3)N2C23CC4CC(CC(C4)C2)C3)cc1` (stereo unspecified): the TGI in the assay on CAKI-1 renal, in the assay on MOLT-4 leukemia, in the assay with SF-295 CNS, with SR leukemia, in the assay on NCI-H522 lung and in the assay on HL-60(TB) leukemia was more than 10 µM throughout. Moreover, the TGI with U251 CNS, with IGROV1 ovarian, with OVCAR-3 ovarian, in the assay with 786-0 renal, in the assay on NCI-H23 lung and in the assay on OVCAR-8 ovarian was more than 10 µM throughout. Besides, the TGI in the assay on UACC-257 melanoma, with SN12C renal, in the assay with MDA-MB-231 breast, with RPMI-8226 leukemia and with A549 NSCLC was more than 10 µM throughout.
In the case of `COc1cc(/C=C2\C[C@H]3[C@@H]4CCC5=CC(=O)CC[C@]5(C)[C@H]4CC[C@]3(C)C2=O)cc(OC)c1OC`, the TGI in the assay with CAKI-1 renal is more than 65.2 µM; in the assay with MOLT-4 leukemia it was more than 100 µM; in the assay on SF-295 CNS it was more than 100 µM; in the assay with SR leukemia, more than 100 µM; in the assay on NCI-H522 lung, more than 100 µM; in the assay with HL-60(TB) leukemia, 7.55 µM. Further, the TGI is more than 100 µM in the assay with U251 CNS; more than 100 µM with IGROV1 ovarian; more than 49 µM with OVCAR-3 ovarian; more than 100 µM in the assay on 786-0 renal; more than 100 µM in the assay with NCI-H23 lung; more than 100 µM with OVCAR-8 ovarian. In addition, the TGI was more than 84.2 µM in the assay with UACC-257 melanoma; more than 100 µM in the assay on SN12C renal; more than 100 µM in the assay on MDA-MB-231 breast; 9.7 µM in the assay on RPMI-8226 leukemia; more than 100 µM in the assay with A549 NSCLC.
On to `NC(=O)CSc1c2cc(O)ccc2nc2ccc(O)cc12`, for which the TGI in the assay on CAKI-1 renal, in the assay on MOLT-4 leukemia, in the assay with SF-295 CNS, in the assay with SR leukemia, with NCI-H522 lung and in the assay on HL-60(TB) leukemia was more than 10 µM throughout. In addition, the TGI with U251 CNS, with IGROV1 ovarian, in the assay on OVCAR-3 ovarian, in the assay with 786-0 renal, in the assay on NCI-H23 lung and with OVCAR-8 ovarian was more than 10 µM in each case. Further, the TGI in the assay with UACC-257 melanoma, in the assay with SN12C renal, with MDA-MB-231 breast, with RPMI-8226 leukemia and with A549 NSCLC was more than 10 µM in each case.
Turning to `c1ccc2cc3c(NC4=NCCO4)cccc3cc2c1`, the TGI is more than 100 µM in the assay with CAKI-1 renal; more than 100 µM in the assay on MOLT-4 leukemia; more than 100 µM in the assay with SF-295 CNS; more than 100 µM in the assay with SR leukemia; more than 100 µM in the assay with NCI-H522 lung; 52.1 µM with HL-60(TB) leukemia. In addition, the TGI in the assay on U251 CNS, in the assay with IGROV1 ovarian, with OVCAR-3 ovarian, in the assay on 786-0 renal, with NCI-H23 lung and in the assay on OVCAR-8 ovarian was more than 100 µM each time. Besides, the TGI in the assay on UACC-257 melanoma, in the assay with SN12C renal, in the assay with MDA-MB-231 breast, with RPMI-8226 leukemia and in the assay on A549 NSCLC was more than 100 µM in each case.
